Key:
SU-DHL-10 xenograft = experiment: Human xenograft model, diffuse large B-cell lymphoma line SU-DHL-10; assay type: in vivo, SCID beige mice; conditions: once daily oral gavage, p<0.01 for 10 and 30 mpk doses
Method: FIG. 10 is a set of graphs of in vivo treatment results for Athymic Nude mice engrafted with the DLBCL line SU-DHL-10 (left panel) or the CRC line HCT-116 (right panel). After 14 days, groups of mice (n=10 per group) were randomized by tumor volume and treated with Compound B19 (left panel) or Compound A197 (right panel). All animals dosed p.o. q.d. (orally once per day). Tumor burden was measured over 21 days. Compound B19 efficacy was monitored for 21 days following last dose to determine relapse. All data plotted as the mean±SEM, n=10 mice per group.
The positive results of the PK studies led to an evaluation of Compound A197 and Compound B19 in murine xenograft models of human tumors. Compound A197 was tested in a human tumor xenograft model using KRAS mutated colorectal cancer cell line HCT-116. Athymic nude mice (HSD:Athymic Nude-Foxn1 nu, Envigo) were inoculated subcutaneously with 5×10^6 HCT-116 cells in the right rear flank. The animals wethen staged and randomized by tumor size to achieve dose groups of 10 animals each with an average tumor volume of 150 mm^3. Tumor bearing mice were dosed once daily by oral gavage with a vehicle (5% NMP, 15% PEG400, 10% Solutol, and 70% D5W) or with A197 dissolved in vehicle to provide a dose concentration of 10 ml/kg. Compound B19 was tested in a human xenograft model using the human diffuse large B-cell lymphoma line SU-DHL-10 (ATCC). […]

Oxidative Stress = experiment: High content imaging screen: oxidative stress (ROS); assay type: cell-based
Method: (§1) Mechanism of Action Screens A series of broad high content imaging, transcriptomic, metabolomic, and CRISPR KO screens were performed to link Compound A197 activity to a probable method of action. The outcome of these screens included two notable observations.

NHLF = experiment: Total cellular GSH levels (GSH-Glo): NHLF; assay type: cell-based, human; conditions: 4 hrs
Method: NHLF, BJAB, SU-DHL-2, and HCT-116 cells were treated with Compound A197 for 4 hours prior to lysate harvest. Total cellular glutathione (GSH) levels were determined using a luminescent endpoint (GSH-Glo, Promega). Cell proliferation was determined using Cell-Titre Glo following 72 hours of compound treatment. All data shown is mean±SD of three biological replicates.

DNA Damage = experiment: High content imaging screen: DNA damage (Histone H2A.x phosphorylation); assay type: cell-based; conditions: Histtone H2A.x phosphorylation as marker
Method: as §1

eIF2α phosphorylation = eIF2α phosphorylation in HCT-116 cells, Western blotting; assay type: cell-based, human; conditions: 5 μM, 30 minutes, 1, 2 or 4 hrs
Method: FIG. 12 is a set of graphs of Compound A197-induced phosphorylation of eIF2a. HCT-116 cells were treated with 5 μM Compound A197. eIF2α and p-eIF2α levels were determined by Western blotting. All data are mean±SD (n=3). *=p<0.05; #p<0.005.
The canonical pathway of ATF4 induction involves eIF2α phosphorylation. To determine the levels of levels of eIF2α and p-eIF2α were determined using Western blotting. HCT-116 cells (1.5×10^5 per well) were cultured in 12 well tissue culture plates and treated with 5 μM Compound A197 dissolved in McCoys complete medium with 10% FBS for 30 minutes, 1,2 or 4 hrs. Following treatment, media was removed, the cells were washed with PBS and then lysed following addition of RIPA lysis buffer. The cell lysate is then clarified by centrifugation at 14,000×g for 10 minutes. The clarified lysate protein levels are determined using BCA methodology. All lysates are diluted with RIPA buffer to give a final concentration of 200 μg/ml. As a control, HCT-116 cells were starved for essential amino acids (EAA), which increases eIF2α phosphorylation via EIF2AAK4 (GCN2). The HCT-116 cells were plated as above but the media was removed and replaced with Earls Balanced salt solution. All subsequent steps for lysate preparation were identical to those described above.

Kinase = experiment: In vitro assays: kinase; assay type: biochemical; conditions: 63 kinase family members including Raf, MEK, ERK, AKT, CDK1-4
SU-DHL-2 = experiment: Apoptosis, 72 hr: SU-DHL-2; assay type: cell-based, human
BJAB = experiment: Apoptosis, 72 hr: BJAB; assay type: cell-based, human
Autophagy = experiment: High content imaging screen: autophagy (LC3 cleavage, autophagic granules); assay type: cell-based
Method: as §1

| SMILES | regression in DLBCL tumors (SU-DHL-10 xenograft) | Outcome: Oxidative Stress (Oxidative Stress) | GSH % Max reduction (NHLF) [%] | Outcome: DNA Damage (DNA Damage) | eIF2α phosphorylation (eIF2α phosphorylation) | Outcome: Kinase (Kinase) | Apoptosis, 72 hr (SU-DHL-2) | Apoptosis, 72 hr (BJAB) | Outcome: Autophagy (Autophagy) |
| --- | --- | --- | --- | --- | --- | --- | --- | --- | --- |
| COC(=O)c1c(-c2cccc(F)c2)c(C)nn1-c1nc(C2=CCC(C(F)(F)F)CC2)c(SC(C)C)s1 (single isomer, unassigned) [Compound B19, methyl 4-(3-fluorophenyl)-1-(5-(isopropylthio)-4-(4-(trifluoromethyl)cyclohex-1-en-1-yl)thiazol-2-yl)-3-methyl-1H-pyrazole-5-carboxylate] | dose-dependent and durable regression in DLBCL tumors by day 21 |  |  |  |  |  |  |  |  |
| Cc1nn(-c2nc(-c3ccc(C(F)(F)F)cc3)c(SC(C)C)s2)c(C(=O)O)c1-c1cccc(F)c1 [Compound A197, 4-(3-fluorophenyl)-1-(5-(isopropylthio)-4-(4-(trifluoromethyl)phenyl)thiazol-2-yl)-3-methyl-1H-pyrazole-5-carboxylic acid] |  | No production of ROS | 0 | No evidence of DNA damage using Histtone H2A.x | Increased eIF2α phosphorylation within 30 minutes | No activity on 63 kinase family members including Raf, | Yes | Yes | No detectable LC3 cleavage; no formation of |

Reference: patent publication US20210278408A1, “METHODS OF TREATMENT OF CANCER WITH SUBSTITUTED PYRROLE AND PYRAZOLE COMPOUNDS AND DIAGNOSIS OF CANCERS SUSCEPTIBLE TO TREATMENT WITH SUBSTITUTED PYRROLE AND PYRAZOLE COMPOUNDS” (Bantam Pharmaceutical, LLC, priority 2018, published 2021)
